Assay results taken from patent US8044079B2, “Substituted oxindole derivatives, medicaments containing said derivatives and use thereof” (Abbott GmbH & Co. KG, priority 2005, dated 2011).
pKi: −log10 of the molar value.

What follows are compounds tested against T1, human vasopressin V1b receptor (Homo sapiens, UniProt P47901) (assay: Vasopressin V1b receptor binding test). Details: membranes of CHO-K1 cells with human V1b receptor, displacement of 1.5 nM 3H-AVP; for compounds with more than one stereogenic center the diastereomer with greater affinity.
T1 construct: expressed in transfected cells; host or cells: CHO-K1 (cell line hV1b_3H2_CHO), membrane preparation
T1 sequence (P47901 1-424): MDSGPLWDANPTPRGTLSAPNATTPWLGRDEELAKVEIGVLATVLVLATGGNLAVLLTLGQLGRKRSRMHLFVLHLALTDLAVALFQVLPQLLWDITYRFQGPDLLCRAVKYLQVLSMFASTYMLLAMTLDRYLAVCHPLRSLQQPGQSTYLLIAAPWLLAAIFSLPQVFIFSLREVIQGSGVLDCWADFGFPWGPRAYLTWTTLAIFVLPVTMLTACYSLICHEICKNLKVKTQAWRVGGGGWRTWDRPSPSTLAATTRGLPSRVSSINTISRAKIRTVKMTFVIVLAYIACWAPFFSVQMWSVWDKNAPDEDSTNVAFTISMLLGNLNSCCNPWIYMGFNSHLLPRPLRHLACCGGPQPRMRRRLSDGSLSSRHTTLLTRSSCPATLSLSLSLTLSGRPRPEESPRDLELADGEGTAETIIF
Procedure, shortened: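 Affinity constants (Ki) came from nonlinear regression of triplicate scintillation counts after filtration separated bound from free radioligand. Compounds competed at human V1b membranes for 60 min, room temperature, in pH 7.4 tris/MgCl2/BSA buffer with 2% DMSO; 1 μM AVP defined nonspecific binding.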

| SMILES | pKi |
| --- | --- |
| COc1ccc(S(=O)(=O)N2C(=O)C(c3cc(CN4CCCC4)ccc3OC)(N3CCC[C@H]3c3ncon3)c3cc(Cl)ccc32)cc1 (stereo partly drawn) [Example 210, 5-Chloro-1-(4-methoxybenzenesulfonyl)-3-(2-methoxy-5-pyrrolidin-1-ylmethylphenyl)-3-((S)-2-[1,2,4]oxadiazol-3-yl-pyrrolidin-1-yl)-1,3-dihydroindol-2-one] | > 8.00 |
| COc1ccc(S(=O)(=O)N2C(=O)C(c3ccc(CN4CCN(CCO)CC4)cc3OC)(N3CCC[C@H]3c3ncco3)c3cc(Cl)c(F)cc32)cc1 (stereo partly drawn) [Example 212, 5-Chloro-6-fluoro-3-{4-[4-(2-hydroxyethyl)piperazin-1-ylmethyl]-2-methoxyphenyl}-1-(4-methoxybenzenesulfonyl)-3-((S)-2-oxazol-2-yl-pyrrolidin-1-yl)-1,3-dihydroindol-2-one] | > 8.00 |
| COc1ccc(S(=O)(=O)N2C(=O)C(c3cc(CN4CCCC4)ccc3OC)(N3C[C@H](OC(C)(C)C)C[C@H]3c3ncco3)c3cc(Cl)ccc32)cc1 (stereo partly drawn) [Example 213, 3-((2S,4R)-4-tert-butoxy-2-oxazol-2-yl-pyrrolidin-1-yl)-5-chloro-1-(4-methoxybenzenesulfonyl)-3-(2-methoxy-5-pyrrolidin-1-ylmethylphenyl)-1,3-dihydroindol-2-one] | 7.00 to 8.00 |
| COc1ccc(S(=O)(=O)N2C(=O)C(c3cc(CN4CCN(C)CC4)ccc3OC)(N3C[C@H](OC(C)(C)C)C[C@H]3c3ncco3)c3cc(Cl)ccc32)cc1 (stereo partly drawn) [Example 214, 3-((2S,4R)-4-tert-butoxy-2-oxazol-2-yl-pyrrolidin-1-yl)-5-chloro-1-(4-methoxybenzenesulfonyl)-3-[2-methoxy-5-(4-methylpiperazin-1-ylmethyl)phenyl]-1,3-dihydroindol-2-one] | > 8.00 |
| COc1ccc(S(=O)(=O)N2C(=O)C(c3cc(CN4CCN(CCO)CC4)ccc3OC)(N3C[C@H](OC(C)(C)C)C[C@H]3c3ncco3)c3cc(Cl)ccc32)cc1 (stereo partly drawn) [Example 215, 5-Chloro-3-((2S,4R)-4-tert-butoxy-2-oxazol-2-yl-pyrrolidin-1-yl)-3-{5-[4-(2-hydroxyethyl)piperazin-1-ylmethyl]-2-methoxyphenyl}-1-(4-methoxybenzenesulfonyl)-1,3-dihydroindol-2-one] | 7.00 to 8.00 |
| CCNCc1ccc(OC)c(C2(N3CCC[C@H]3c3ncon3)C(=O)N(S(=O)(=O)c3ccc(OC)cc3)c3ccc(Cl)cc32)c1 (stereo partly drawn) [Example 216, 5-Chloro-3-(5-ethylaminomethyl-2-methoxyphenyl)-1-(4-methoxybenzenesulfonyl)-3-((S)-2-[1,2,4]oxadiazol-3-yl-pyrrolidin-1-yl)-1,3-dihydroindol-2-one] | > 8.00 |
| CNCc1ccc(C2(N3C[C@H](O)C[C@H]3c3ncco3)C(=O)N(S(=O)(=O)c3ccc(OC)cc3)c3ccc(Cl)cc32)c(OC)c1 (stereo partly drawn) [Example 217, 5-Chloro-3-((2S,4R)-4-hydroxy-2-oxazol-2-yl-pyrrolidin-1-yl)-1-(4-methoxybenzenesulfonyl)-3-(2-methoxy-4-methylaminomethylphenyl)-1,3-dihydroindol-2-one] | > 8.00 |
| COc1ccc(S(=O)(=O)N2C(=O)C(c3cc(CN(C)C)ccc3OC)(N3C[C@H](OC(C)(C)C)C[C@H]3c3ncco3)c3cc(Cl)ccc32)cc1 (stereo partly drawn) [Example 218, 3-((2S,4R)-4-tert-butoxy-2-oxazol-2-yl-pyrrolidin-1-yl)-5-chloro-3-(5-dimethylaminomethyl-2-methoxyphenyl)-1-(4-methoxybenzenesulfonyl)-1,3-dihydroindol-2-one] | 7.00 to 8.00 |
| CCNCc1ccc(OC)c(C2(N3C[C@H](OC(C)(C)C)C[C@H]3c3ncco3)C(=O)N(S(=O)(=O)c3ccc(OC)cc3)c3ccc(Cl)cc32)c1 (stereo partly drawn) [Example 219, 3-((2S,4R)-4-tert-butoxy-2-oxazol-2-yl-pyrrolidin-1-yl)-5-chloro-3-(5-ethylaminomethyl-2-methoxyphenyl)-1-(4-methoxybenzenesulfonyl)-1,3-dihydroindol-2-one] | > 8.00 |
| COc1ccc(S(=O)(=O)N2C(=O)C(c3cc(CN4CCOCC4)ccc3OC)(N3C[C@H](O)C[C@H]3c3ncco3)c3cc(C#N)ccc32)cc1 (stereo partly drawn) [Example 220, 5-Cyano-3-((2S,4R)-4-hydroxy-2-oxazol-2-yl-pyrrolidin-1-yl)-1-(4-methoxybenzenesulfonyl)-3-(2-methoxy-5-morpholin-4-ylmethylphenyl)-1,3-dihydroindol-2-one] | 7.00 to 8.00 |
| COc1ccc(S(=O)(=O)N2C(=O)C(c3cc(CN(C)C)ccc3OC)(N3C[C@H](OC)C[C@H]3c3ncco3)c3cc(Cl)ccc32)cc1 (stereo partly drawn) [Example 223, 5-Chloro-3-(5-dimethylaminomethyl-2-methoxyphenyl)-1-(4-methoxybenzenesulfonyl)-3-((2S,4R)-4-methoxy-2-oxazol-2-yl-pyrrolidin-1-yl)-1,3-dihydroindol-2-one] | > 8.00 |
| COc1ccc(S(=O)(=O)N2C(=O)C(c3cc(CN4CCN(C)CC4)ccc3OC)(N3CCC[C@@]3(C)c3ncco3)c3cc(Cl)ccc32)cc1 (stereo partly drawn) [Example 225, 5-Chloro-1-(4-methoxybenzenesulfonyl)-3-[2-methoxy-5-(4-methylpiperazin-1-ylmethyl)phenyl]-3-((S)-2-methyl-2-oxazol-2-yl-pyrrolidin-1-yl)-1,3-dihydroindol-2-one] | 7.00 to 8.00 |
| COc1ccc(S(=O)(=O)N2C(=O)C(c3cc(CN4CCN(CCO)CC4)ccc3OC)(N3CCC[C@@]3(C)c3ncco3)c3cc(Cl)ccc32)cc1 (stereo partly drawn) [Example 226, 5-Chloro-3-{5-[4-(2-hydroxyethyl)piperazin-1-ylmethyl]-2-methoxyphenyl}-1-(4-methoxybenzenesulfonyl)-3-((S)-2-methyl-2-oxazol-2-yl-pyrrolidin-1-yl)-1,3-dihydroindol-2-one] | > 8.00 |
| COc1ccc(S(=O)(=O)N2C(=O)C(c3cc(CN4CCN(CCO)CC4)ccc3OC)(N3C[C@H](F)C[C@H]3c3ncco3)c3cc(C#N)ccc32)cc1 (stereo partly drawn) [Example 229, 5-Cyano-3-((2S,4R)-4-fluoro-2-oxazol-2-yl-pyrrolidin-1-yl)-3-{5-[4-(2-hydroxyethyl)piperazin-1-ylmethyl]-2-methoxyphenyl}-1-(4-methoxybenzenesulfonyl)-1,3-dihydroindol-2-one] | 7.00 to 8.00 |

Next, values leading:

| pKi | SMILES |
| --- | --- |
| > 8.00 | COc1ccc(S(=O)(=O)N2C(=O)C(c3ccc(CN4CCNCC4)cc3OC)(N3CCC[C@H]3c3ncco3)c3cc(Cl)c(F)cc32)cc1 (stereo partly drawn) [Example 211, 5-Chloro-6-fluoro-1-(4-methoxybenzenesulfonyl)-3-(2-methoxy-4-piperazin-1-ylmethylphenyl)-3-((S)-2-oxazol-2-yl-pyrrolidin-1-yl)-1,3-dihydroindol-2-one] |
| > 8.00 | CCN1CCN(Cc2ccc(OC)c(C3(N4C[C@H](O)C[C@H]4c4ncco4)C(=O)N(S(=O)(=O)c4ccc(OC)cc4)c4ccc(C#N)cc43)c2)CC1 (stereo partly drawn) [Example 221, 5-Cyano-3-[5-(4-ethylpiperazin-1-ylmethyl)-2-methoxyphenyl]-3-((2S,4R)-4-hydroxy-2-oxazol-2-yl-pyrrolidin-1-yl)-1-(4-methoxybenzenesulfonyl)-2,3-dihydro-1H-indol-2-one] |
| 7.00 to 8.00 | COc1ccc(S(=O)(=O)N2C(=O)C(c3cc(CN4CCN(CCO)CC4)ccc3OC)(N3C[C@H](O)C[C@H]3c3ncco3)c3cc(C#N)ccc32)cc1 (stereo partly drawn) [Example 222, 5-Cyano-3-{5-[4-(2-hydroxyethyl)piperazin-1-ylmethyl]-2-methoxyphenyl}-3-((2S,4R)-4-hydroxy-2-oxazol-2-yl-pyrrolidin-1-yl)-1-(4-methoxybenzenesulfonyl)-2,3-dihydro-1H-indol-2-one] |
| > 8.00 | COc1ccc(S(=O)(=O)N2C(=O)C(c3cc(CN4CCN(C)CC4)ccc3OC)(N3C[C@H](OC)C[C@H]3c3ncco3)c3cc(Cl)ccc32)cc1 (stereo partly drawn) [Example 224, 5-Chloro-1-(4-methoxybenzenesulfonyl)-3-[2-methoxy-5-(4-methylpiperazin-1-ylmethyl)phenyl]-3-((2S,4R)-4-methoxy-2-oxazol-2-yl-pyrrolidin-1-yl)-1,3-dihydroindol-2-one] |
| > 8.00 | CNCc1ccc(OC)c(C2(N3CCC[C@@]3(C)c3ncco3)C(=O)N(S(=O)(=O)c3ccc(OC)cc3)c3ccc(Cl)cc32)c1 (stereo partly drawn) [Example 227, 5-Chloro-1-(4-methoxybenzenesulfonyl)-3-(2-methoxy-5-methylaminomethylphenyl)-3-((S)-2-methyl-2-oxazol-2-yl-pyrrolidin-1-yl)-1,3-dihydroindol-2-one] |
| 7.00 to 8.00 | COc1ccc(S(=O)(=O)N2C(=O)C(c3cc(CN4CCN(C)CC4)ccc3OC)(N3C[C@H](F)C[C@H]3c3ncco3)c3cc(C#N)ccc32)cc1 (stereo partly drawn) [Example 228, 5-Cyano-3-((2S,4R)-4-fluoro-2-oxazol-2-yl-pyrrolidin-1-yl)-1-(4-methoxybenzenesulfonyl)-3-[2-methoxy-5-(4-methylpiperazin-1-ylmethyl)phenyl]-1,3-dihydroindol-2-one] |
| 7.00 to 8.00 | COc1ccc(S(=O)(=O)N2C(=O)C(c3cc(CN(C)C)ccc3OC)(N3C[C@H](F)C[C@H]3c3ncco3)c3cc(C#N)ccc32)cc1 (stereo partly drawn) [Example 230, 5-Cyano-3-(5-dimethylaminomethyl-2-methoxyphenyl)-3-((2S,4R)-4-fluoro-2-oxazol-2-yl-pyrrolidin-1-yl)-1-(4-methoxybenzenesulfonyl)-1,3-dihydroindol-2-one] |
